Consider five compounds from ChEMBL document CHEMBL4406824, “Phenolic N-monosubstituted carbamates: Antitubercular and toxicity evaluation of multi-targeting compounds” (Eur J Med Chem, 2019).

The test system of data set [1] is HepG2. Briefly: Cytotoxicity against human HepG2 cells assessed as reduction in cell viability after overnight incubation by MTT assay. It is filed as cell-based. On the technique in general: Tetrazolium dyes change colour on reduction, which living cells bring about.
Data set [2] in a line: in vitro. To be noted: human, HepG2 cells.
Description: Selectivity index, ratio of IC50 for human HepG2 cells to MIC for antimycobacterial activity against Mycobacterium tuberculosis H37Rv
Data set [3] concerns Mycobacterium kansasii. Briefly: Potency index, ratio of p-aminosalicylic acid MIC to compound MIC for antimycobacterial activity against Mycobacterium kansasii 6509/96. It is filed as functional.
Data set [4] has as its system Mycobacterium kansasii. Briefly: Antimycobacterial activity against Mycobacterium kansasii 235/80 after 14 days. It is filed as functional. To be noted: 235/80, 336 h.
Data set [5] relates to Mycobacterium kansasii. Briefly: Antimycobacterial activity against Mycobacterium kansasii 6509/96 after 14 days. To be noted: 6509/96, 336 h. It is filed as functional.
Data set [6] has as its system Mycobacterium kansasii. The experiment in a line: Antimycobacterial activity against Mycobacterium kansasii 6509/96 after 21 days. It is filed as functional. To be noted: 6509/96, 504 h.
The subject of data set [7] is Mycobacterium kansasii. Briefly: Antimycobacterial activity against Mycobacterium kansasii 235/80 after 21 days. To be noted: 235/80, 504 h. It is filed as functional.
The test system of data set [8] is Mycobacterium kansasii. Briefly: Antimycobacterial activity against Mycobacterium kansasii 235/80 after 7 days. Format: functional. To be noted: 235/80, 168 h.
For data set [9], the system named is Mycobacterium tuberculosis H37Rv. The experiment in a line: Inhibition of recombinant Mycobacterium tuberculosis H37Rv ICL1 expressed in Escherichia coli BL21 (DE3) cells at 10 uM using (+)-potassium Ds-threo-isocitrate as substrate by glyoxylate phenyl hydrazone formation assay relative to control.
Data set [10] relates to Mycolicibacterium smegmatis. Briefly: Antimycobacterial activity against Mycobacterium smegmatis DSM 43465 after 120 hr by resazurin dye based microdilution method. To be noted: DSM 43465, 120 h. Format: functional. A general note: Alamar Blue is a resazurin reagent that responds to reducing activity.
The subject of data set [11] is Mycobacterium kansasii. The experiment in a line: Antimycobacterial activity against Mycobacterium kansasii 6509/96 after 7 days. To be noted: 6509/96, 168 h. It is filed as functional.
The subject of data set [12] is Mycobacterium kansasii. Briefly: Potency index, ratio of p-aminosalicylic acid MIC to compound MIC for antimycobacterial activity against Mycobacterium kansasii 235/80. It is filed as functional.
The subject of data set [13] is Mycobacterium tuberculosis. Format: functional. To be noted: H37Rv 331/88, 504 h.
The test system of data set [14] is Mycobacterium avium. Briefly: Antimycobacterial activity against Mycobacterium avium 330/88 after 14 days. Format: functional. To be noted: 330/88, 336 h.
In data set [15] the test system is Mycobacterium tuberculosis. The experiment in a line: Antimycobacterial activity against Mycobacterium tuberculosis H37Ra ITM-M006710 after 48 hr by resazurin dye based microdilution method. Format: functional. To be noted: H37Ra ITM-M006710, 48 h.
Data set [16] deals with Mycobacterium avium. Briefly: Antimycobacterial activity against Mycobacterium avium 330/88 after 21 days. Format: functional. To be noted: 330/88, 504 h.
Data set [17] deals with Mycobacterium tuberculosis. Format: functional, H37Rv 331/88. Also on record: reference not given here.
Data set [18] concerns Mycolicibacterium aurum. Briefly: Antimycobacterial activity against Mycobacterium aurum DSM 43999 after 72 hr by resazurin dye based microdilution method. To be noted: DSM 43999, 72 h. It is filed as functional.
Data set [19] relates to HepG2. The experiment in a line: Cytostatic activity against human HepG2 cells preincubated for overnight in serum free medium followed by compound wash out and further incubated for 72 hrs in presence of serum by MTT assay. Format: ADME, cell-based.
Data set [20] deals with Mycobacterium tuberculosis. It is filed as functional. To be noted: H37Rv 331/88, 336 h.

Converted amounts (≈) assume the structure as drawn.

The IC50 is the midpoint of a concentration-inhibition curve. One may read the MIC as the smallest concentration in the dilution series that meets the test's criterion for growth inhibition. Usually inhibition stands for the relative decrease from the control value, in per cent. As for `O=C(NCc1ccccc1)Oc1ccc(Cl)cc1C(=O)Nc1ccc(Cl)cc1`, the IC50 in data set [1] was over 250 µM; in data set [19], 6.4 µM. Further, the selectivity ratio in [2] is over 15.6. Also, the Ratio in data set [3] is recorded as over 250; in [12] it was over 250; in data set [17], over 125. For the same compound, the MIC in data set [4] is 8 µM (≈ 3.32 µg/mL); in data set [5], 8 µM (≈ 3.32 µg/mL); in [6], 8 µM (≈ 3.32 µg/mL); in data set [7], 16 µM (≈ 6.64 µg/mL); in [8], 8 µM (≈ 3.32 µg/mL); in data set [10], 1.56 µg/mL (≈ 3.76 µM). The MIC amounted to 4 µM (≈ 1.66 µg/mL) in [11]; 16 µM (≈ 6.64 µg/mL) in data set [13]; 8 µM (≈ 3.32 µg/mL) in data set [14]; 1.56 µg/mL (≈ 3.76 µM) in data set [15]; 16 µM (≈ 6.64 µg/mL) in [16]; 1.56 µg/mL (≈ 3.76 µM) in data set [18]. The compound also yielded a minimum inhibitory concentration (MIC) in data set [20] of 16 µM (≈ 6.64 µg/mL). Besides, the inhibition in data set [9] is 11%.
As for `O=C(NC1CCCCC1)Oc1ccc(Cl)cc1C(=O)Nc1ccc(Br)cc1`, the IC50 in data set [1] was over 50 µM; in [19], 9.4 µM. Further, the selectivity ratio in data set [2] is over 6.3. For the same compound, the values for the Ratio in data set [3], in data set [12] and in data set [17] were over 250, over 250 and over 125, respectively. Also, the MIC in data set [4] stood at 8 µM (≈ 3.61 µg/mL); in data set [5] it was 8 µM (≈ 3.61 µg/mL); in [6], 8 µM (≈ 3.61 µg/mL); in data set [7], 8 µM (≈ 3.61 µg/mL); in [8], 4 µM (≈ 1.81 µg/mL); in data set [10], 1.56 µg/mL (≈ 3.45 µM). The MIC in data set [11] was 4 µM (≈ 1.81 µg/mL); in data set [13], 16 µM (≈ 7.23 µg/mL); in data set [14] it was 8 µM (≈ 3.61 µg/mL); in [15] it was 1.56 µg/mL (≈ 3.45 µM); in data set [16], 16 µM (≈ 7.23 µg/mL); in data set [18] it was 1.56 µg/mL (≈ 3.45 µM). For the same compound, 8 µM (≈ 3.61 µg/mL) was the least that counted as inhibitory in [20] (MIC). Moreover, the inhibition in data set [9] is 16%.
For the compound `O=C(NCc1ccccc1)Oc1ccc(Cl)cc1C(=O)Nc1ccc(Br)cc1`, the figures for the half-inhibitory concentration (IC50) in data set [1] and in [19] were over 50 µM and 1.65 µM, respectively. Besides, in [2], the selectivity ratio is over 3.1. The figures for the Ratio in [3], in data set [12] and in [17] were over 250, over 250 and over 125, respectively. Moreover, the MIC in [4] was 8 µM (≈ 3.68 µg/mL); in data set [5], 8 µM (≈ 3.68 µg/mL); in data set [6] it was 8 µM (≈ 3.68 µg/mL); in [7], 8 µM (≈ 3.68 µg/mL); in data set [8], 4 µM (≈ 1.84 µg/mL); in [10] it was 1.98 µg/mL (≈ 4.31 µM). The MIC in data set [11] came out at 4 µM (≈ 1.84 µg/mL); in data set [13] it was 16 µM (≈ 7.36 µg/mL); in [14] it was 8 µM (≈ 3.68 µg/mL); in [15], 3.91 µg/mL (≈ 8.51 µM); in [16] it was 16 µM (≈ 7.36 µg/mL); in [18], 1.98 µg/mL (≈ 4.31 µM). Further, 16 µM (≈ 7.36 µg/mL) was the least that counted as inhibitory in [20] (MIC). Besides, in data set [9], the inhibition is 17%.
On to `O=C(NC12CC3CC(CC(C3)C1)C2)Oc1ccc(Cl)cc1C(=O)Nc1ccc(Br)cc1`, for which the IC50 in [1] is 4.2 µM; in [19] it was 4.35 µM. Besides, in data set [2], the selectivity ratio amounted to 0.5. The Ratio in data set [3] was over 250; in [12] it was over 250; in [17], over 125. Further, the MIC in data set [4] was determined as 8 µM (≈ 4.03 µg/mL); in data set [5], 8 µM (≈ 4.03 µg/mL); in data set [6] it was 8 µM (≈ 4.03 µg/mL); in [7], 8 µM (≈ 4.03 µg/mL); in data set [8], 4 µM (≈ 2.02 µg/mL); in data set [10], 3.12 µg/mL (≈ 6.2 µM). For the same compound, the MIC in [11] stood at 4 µM (≈ 2.02 µg/mL); in [13], 8 µM (≈ 4.03 µg/mL); in data set [14], 8 µM (≈ 4.03 µg/mL); in data set [15] it was 1.56 µg/mL (≈ 3.1 µM); in [16], 8 µM (≈ 4.03 µg/mL); in data set [18], 1.56 µg/mL (≈ 3.1 µM). This compound also came in with a minimum inhibitory concentration (MIC) in [20] of 8 µM (≈ 4.03 µg/mL). For the same compound, in data set [9], the inhibition amounted to 18%.
As for `O=C(NC1CCCCC1)Oc1ccc(Cl)cc1C(=O)Nc1ccc(F)cc1`, the concentration for half-maximal inhibition (IC50) in data set [1] turned out to be 21.2 µM; in data set [19] it was 8.6 µM. Further, in data set [2], the selectivity ratio fell in the range of 2.7 to 5.3. The figures for the Ratio in data set [3], in data set [12] and in data set [17] were over 250, over 250 and over 125, respectively. The MIC worked out at 32 µM (≈ 12.5 µg/mL) in [4]; 16 µM (≈ 6.25 µg/mL) in data set [5]; 32 µM (≈ 12.5 µg/mL) in [6]; 32 µM (≈ 12.5 µg/mL) in data set [7]; 16 µM (≈ 6.25 µg/mL) in [8]; 3.91 µg/mL (≈ 10 µM) in data set [10]. Besides, the minimal inhibitory concentration (MIC) is 16 µM (≈ 6.25 µg/mL) in data set [11]; 8 µM (≈ 3.13 µg/mL) in data set [13]; 32 µM (≈ 12.5 µg/mL) in [14]; 3.12 µg/mL (≈ 8 µM) in [15]; 32 µM (≈ 12.5 µg/mL) in [16]; 1.56 µg/mL (≈ 3.99 µM) in data set [18]. The compound further yielded an MIC in data set [20] of 4 µM (≈ 1.56 µg/mL). Moreover, in data set [9], the inhibition turned out to be 18%.
